According to US20230165846A1, “HETEROCYCLIC GLP-1 AGONISTS” (Gasherbrum Bio, Inc., priority 2020, published 2023):

Columns and labels:
[1] = biological target: T1, GLP-1 Receptor (Homo sapiens, UniProt P43220); assay: GLP-1R agonist cAMP stimulation assay, Method 1 (DiscoverX CHO-K1, enzyme fragment complementation); assay type: cell-based; details: CHO-K1 cell line (DiscoverX) stably expressing GLP-1 Receptor; incubation 30 or 60 min at 37° C.; geometric mean where n>=2; read-out: GLP1R cAMP Stimulation DR: EC50 (nM) Method 1
Experimental: Activation of GLP-1 receptor is known to stimulate cyclic AMP (cAMP) production in cells which indicates primary coupling to the Gas subunit of the G protein heterotrimeric complex.
Method 1: To optimize functional activity directed toward Gas coupling, a CHO—K1 cell line developed by DiscoverX stably expressing the GLP-1 Receptor was used. Cells expressing GLP-1 receptor were plated in a 384-well microtiter plates and incubated overnight at 37° C. with 5% CO2 to allow the cells to attach and grow. Media was then aspirated from the cells and replaced with 15 uL 2:1 Hanks Balanced Salt Solution (HBSS)/10mM Hepes : cAMP XS+ Ab reagent. Five microliters (5 uL) of previously generated compound sample stocks at 4x final concentration in assay buffer were then added to the cells and allowed to incubate at 37° C. for 30 or 60 minutes.
After incubation the assay signal was generated using enzyme fragment complementation (EFC). In EFC, the enzyme B-galactosidase is split into two complementary portions (EA and ED). The fragment ED is fused to cAMP and in the assay format competes with endogenous cAMP for binding to a cAMP specific antibody. Activated β—Gal is formed when exogenous EA fragment binds to free ED-cAMP (not bound to cAMP specific antibody). Activated enzyme levels are detected through conversion of β-gal chemiluminescent substrate which generates a detectable luminescence signal and read on standard microtiter plate.
The methodology for detection of cAMP using EFC requires incubation with 20uL of cAMP XS+ ED/CL lysis cocktail for one hour followed by incubation with 20 uL cAMP XS+ EA reagent for three hours at room temperature. Microplates were read following signal generation with a PerkinElmer Envision instrument utilizing chemiluminescent signal detection. Compound activity was analyzed using CBIS data analysis suite (ChemInnovation, CA). Percentage activity was calculated using the following formula:
(§1) %Activity = 100% x (mean RLU of test sample - mean RLU of vehicle control) / (mean RLU of MAX control - mean RLU of vehicle control))
(§2) This is done to account for the lognormal distribution of multiple estimates of EC50 values. In practice geometric mean is calculated by first generating log values of EC50, averaging replicates and then calculating the antilog of the average.

[2] = biological target: T1, GLP-1 Receptor; assay: GLP-1R agonist cAMP stimulation assay, Method 2 (HDB HEK293/GLP1R/CRE-LUC, Cisbio cAMP dynamic 2 kit); assay type: cell-based; details: HEK293/GLP1R/CRE-LUC cells (HD Biosciences); 30 min at 37° C.; 0.5 mM IBMX, 0.1% BSA; geometric mean where n>=2; read-out: GLP1R cAMP Stimulation DR: EC50 (nM) Method 2 (HDB)
Experimental: Method 2: Activation of GLP-1 receptor is known to stimulate cyclic AMP (cAMP) production in cells which indicates primary coupling to the Gas subunit of the G protein heterotrimeric complex.
To optimize functional activity directed toward Gas coupling, a HEK293/CRE-Luc cell line developed by HDB stably expressing the GLP-1 Receptor was used. 200× concentration of compound working solutions were prepared (Agilent Technologies Bravo) with ½log serial dilution in 384-well Echo LDV plate (Labcyte, Cat# LP-0200). […] Seal the plate and incubate at 37° C. with 5% CO2 for 30 min.
After incubation the cAMP assay signal was generated using cAMP dynamic 2 Kit (Cisbio). 5 µL cAMP-d2 working solution was added to each well, followed with 5 µL Anti-cAMP antibody-cryptate working solution added to each well using ThermoFisher Multidrop Combi. Incubate at room temperature for 1 hour protected from light.
as §1, §2

T1 sequence (P43220 24-463): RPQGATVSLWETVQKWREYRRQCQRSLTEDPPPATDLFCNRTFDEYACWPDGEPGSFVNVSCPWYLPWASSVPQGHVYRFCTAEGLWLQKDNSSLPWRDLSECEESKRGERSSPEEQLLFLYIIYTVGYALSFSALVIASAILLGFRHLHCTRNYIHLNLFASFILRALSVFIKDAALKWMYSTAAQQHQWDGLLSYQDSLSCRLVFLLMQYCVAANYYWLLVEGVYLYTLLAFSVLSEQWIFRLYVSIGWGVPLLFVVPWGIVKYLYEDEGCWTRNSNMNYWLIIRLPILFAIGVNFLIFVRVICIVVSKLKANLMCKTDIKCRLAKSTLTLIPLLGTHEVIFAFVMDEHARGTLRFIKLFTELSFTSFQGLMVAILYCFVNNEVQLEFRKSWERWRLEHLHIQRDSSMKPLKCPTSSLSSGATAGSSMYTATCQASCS

Structure (SMILES)	EC50 [1] [nM]	EC50 [2] [nM]
N#Cc1ccc(COc2cccc(-c3ccn(Cc4nc5ccc(C(=O)O)nc5n4C[C@@H]4CCO4)c(=O)c3)n2)c(F)c1 [Compound 106aw, (S)-2-((6-((4-cyano-2-fluorobenzyl)oxy)-2′-oxo-[2,4′-bipyridin] -1′(2′H)-yl)methyl)-3-(oxetan-2-ylmethyl)-3H-imidazo[4,5-b]pyridine-5-carboxylic acid]	1.3	4.1
O=C(O)c1ccc2nc(COc3cc(-c4cccc(OCc5ccc(Cl)cc5F)n4)c(F)cn3)n(C[C@@H]3CCO3)c2n1 [Compound 109aw, (S)-2-(((6-((4-chloro-2-fluorobenzyl)oxy)-5′-fluoro-[2,4′-bipyridin]-2′-yl)oxy)methyl)-3-(oxetan-2-ylmethyl)-3H-imidazo[4,5-b]pyridine-5-carboxylic acid]	4.8	10
O=C(O)c1ccc2nc(CN3CC=C(c4cccc(OCc5ccc(Cl)cc5F)n4)CC3)n(C[C@@H]3CCO3)c2n1 [Compound 110a, (S)-2-((6-((4-chloro-2-fluorobenzyl)oxy)-3′,6′-dihydro-[2,4′-bipyridin]-1′(2′H)-yl)methyl)-3-(oxetan-2-ylmethyl)-3H-imidazo[4,5-b]pyridine-5-carboxylic acid]	< 0.051	0.0074
O=C(O)c1ccc2nc(CN3CC=C(c4csc(OCc5ccc(Cl)cc5F)n4)CC3)n(C[C@@H]3CCO3)c2n1 [Compound 111a]	0.18	0.073
N#Cc1ccc(COc2nc(C3=CCN(Cc4nc5ccc(C(=O)O)nc5n4C[C@@H]4CCO4)CC3)cs2)c(F)c1 [Compound 112a, (S)-2-((4-(2-((4-cyano-2-fluorobenzyl)oxy)thiazol-4-yl)-3,6-dihydropyridin-1 (2H)-yl)methyl)-3-(oxetan-2-ylmethyl)-3H-imidazo[4,5-b]pyridine-5-carboxylic acid]	0.26	0.17
O=C(O)c1ccc2nc(Cc3ccc(-c4cccc(OCc5ccc(Cl)cc5F)n4)cc3)n(C[C@@H]3CCO3)c2n1 [Compound 120aw, 2-[[4-[6-[(4-chloro-2-fluoro-phenyl)methoxy]-2-pyridyl]phenyl]methyl]-3-[[(2S)-oxetan-2-yl]methyl]imidazo[4,5-b]pyridine-5-carboxylic acid]	< 0.051	0.017

Second part, the molecule after the results:

EC50 [1] [nM]	EC50 [2] [nM]	Structure (SMILES)
0.28	0.19	O=C(O)c1ccc2nc(Cn3ccc(-c4cccc(OCc5ccc(Cl)cc5F)n4)cc3=O)n(C[C@@H]3CCO3)c2c1 [Compound 107aw, 2-[[4-[6-[(4-chloro-2-fluorophenyl)methoxy]-2-pyridyl]-2-oxo-1-pyridyl]methyl]-3-[[(2S)-oxetan-2-yl]methyl]benzimidazole-5-carboxylic acid]
5.9	5.7	O=C(O)c1ccc2nc(Cn3ccc(-c4cccc(OCc5ccc(Cl)cc5F)c4)cc3=O)n(C[C@@H]3CCO3)c2n1 [Compound 108aw, 2-[[4-[3-[(4-chloro-2-fluoro-phenyl)methoxy]phenyl]-2-oxo-1-pyridyl]methyl]-3-[[(2S)-oxetan-2-yl]methyl]-imidazo[4,5-b]pyridine-5-carboxylic acid]
43	88	O=C(O)c1ccc2nc(COc3cc(-c4cccc(OCc5ccc(Cl)cc5F)c4)ccn3)n(C[C@@H]3CCO3)c2n1 [Compound 110aw, 2-[[4-[3-[(4-chloro-2-fluoro-phenyl)methoxy]phenyl]-2-pyridyl]oxymethyl]-3-[[(2S)-oxetan-2-yl]methyl]imidazo[4,5-b]pyridine-5-carboxylic acid]
